Assay results reported in patent publication US10821115B2, “Compounds that inhibit Mcl-1 protein” (priority 2017, dated 2020).
pIC50: −log10 of the molar value. Read-outs that look alike come from different tables or passages of the source.

How the values were obtained:
[1] = system: human multiple myeloma cell line, OPM-2; assay: Cell viability assay (OPM-2 10 FBS), CellTiter-Glo; assay type: cell-based
Method in brief: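 Cells were seeded at 3000 cells/well in RPMI 1640 with 10% FBS and exposed to serially diluted compounds for 16 h at 37 °C, 5% CO2.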

[2] = target: recombinant human Mcl-1 (residues 171-327) / Bim interaction (Homo sapiens (Human), UniProt Q07820); assay: biochemical; assay type: binding; settings: read-out: Mcl-1 HTRF IC50
Chain of recombinant human Mcl-1 (residues 171-327) / Bim interaction (Q07820 171-327): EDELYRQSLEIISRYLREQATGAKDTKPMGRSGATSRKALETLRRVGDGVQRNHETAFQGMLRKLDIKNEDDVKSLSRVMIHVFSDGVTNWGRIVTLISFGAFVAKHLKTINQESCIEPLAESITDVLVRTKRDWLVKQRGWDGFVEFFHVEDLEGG

[3] = Homo sapiens, OPM-2, 16 h, read-out: OPM-2 10% FBS IC50 IP, OPM-2 cells, 10% FBS, 16 h, CellTiter-Glo
[4] = TR-FRET, Mcl-1(171-327) / biotin-Bim (51-76)

SMILES	pIC50 [1, 3]	pIC50 [2, 4]	pIC50 [2]	pIC50 ([1]; read-out: OPM-2 10% FBS IC50 IP, OPM-2 cells, 10% FBS, 16 h, CellTiter-Glo)
C[C@@H]1[C@@H](C)CCC[C@](O)(CC[S@@+](C)[O-])[C@@H]2CC[C@H]2CN2C[C@@]3(CCCc4cc(Cl)ccc43)COc3ccc(cc32)C(=O)NS1(=O)=O [Example 100330, (1S,3′R,6′R,7′S,11′S,12′R)-6-chloro-7′-hydroxy-11′,12′-dimethyl-7′-(2-((R)-methylsulfinyl)ethyl)-3,4-dihydro-2H,15′H-spiro[naphthalene-1,22′-[20]oxa[13]thia[1,14]diazatetracyclo [14.7.2.0~3,6~.0~19,24~]pentacosa[16,18,24]trien]-15′-one 13′,13′-dioxide]	5.08	10.08		
C[C@@H]1[C@@H](C)C/C=C/[C@](O)(c2cccc(F)n2)[C@@H]2CC[C@H]2CN2C[C@@]3(CCCc4cc(Cl)ccc43)COc3ccc(cc32)C(=O)NS1(=O)=O [Example 100331, (1S,3′R,6′R,7′R,8′E,11′S,12′R)-6-chloro-7′-(6-fluoro-2-pyridinyl)-7′-hydroxy-11′,12′-dimethyl-3,4-dihydro-2H,15′H-spiro[naphthalene-1,22′-[20]oxa[13]thia[1,14]diazatetracyclo [14.7.2.0~3,6~.0~19,24~]pentacosa[8,16,18,24]tetraen]-15′-one 13′,13′-dioxide]	5.08	9.72		
CC#C[C@]1(OC)CCC[C@H](C)[C@@H](C)S(=O)(=O)NC(=O)c2ccc3c(c2)N(C[C@@H]2CC[C@H]21)C[C@@]1(CCCc2cc(Cl)ccc21)CO3 [Example 100332, (1S,3′R,6′R,7′S,11′S,12′R)-6-chloro-7′-methoxy-11′,12′-dimethyl-7′-(1-propyn-1-yl)-3,4-dihydro-2H,15′H-spiro[naphthalene-1,22′-[20]oxa[13]thia[1,14]diazatetracyclo [14.7.2.0~3,6~.0~19,24~]pentacosa[16,18,24]trien]-15′-one 13′,13′-dioxide]	5.37	8.19		
C[C@@H]1[C@@H](C)C/C=C/[C@@](O)(COS(C)(=O)=O)[C@@H]2CC[C@H]2CN2C[C@@]3(CCCc4cc(Cl)ccc43)COc3ccc(cc32)C(=O)NS1(=O)=O [Example 100335, ((1S,3′R,6′R,7′S,8′E,11′S,12′R)-6-chloro-7′-hydroxy-11′,12′-dimethyl-13′,13′-dioxido-15′-oxo-3,4-dihydro-2H-spiro[naphthalene-1,22′-[20]oxa[13]thia[1,14]diazatetracyclo [14.7.2.0~3,6~.0~19,24~]pentacosa[8,16,18,24]tetraen]-7′-yl)methyl methanesulfonate]	6.78	9.50		
C[C@@H]1[C@@H](C)CCC[C@@](C=O)(CN2CCOCC2)[C@@H]2CC[C@H]2CN2C[C@@]3(CCCc4cc(Cl)ccc43)COc3ccc(cc32)C(=O)NS1(=O)=O [Example 100336, (1S,3′R,6′R,7′S,11′S,12′R)-6-chloro-11′,12′-dimethyl-7′-(4-morpholinylmethyl)-15′-oxo-3,4-dihydro-2H-spiro[naphthalene-1,22′-[20]oxa[13]thia[1,14]diazatetracyclo [14.7.2.0~3,6~.0~19,24~]pentacosa[16,18,24]triene]-7′-carbaldehyde 13′,13′-dioxide]	5.74		8.95	
C[C@@H]1[C@@H](C)CCC[C@](C=O)(CN2CCOCC2)[C@@H]2CC[C@H]2CN2C[C@@]3(CCCc4cc(Cl)ccc43)COc3ccc(cc32)C(=O)NS1(=O)=O [Example 100337, (1S,3′R,6′R,7′R,11′S,12′R)-6-chloro-11′,12′-dimethyl-7′-(4-morpholinylmethyl)-15′-oxo-3,4-dihydro-2H-spiro[naphthalene-1,22′-[20]oxa[13]thia[1,14]diazatetracyclo [14.7.2.0~3,6~.0~19,24~]pentacosa[16,18,24]triene]-7′-carbaldehyde 13′,13′-dioxide]	5.62		8.79	
C[C@@H]1[C@@H](C)CCCC(CO)(CO)[C@@H]2CC[C@H]2CN2C[C@@]3(CCCc4cc(Cl)ccc43)COc3ccc(cc32)C(=O)NS1(=O)=O [Example 100342, (1S,3′R,6′R,11′S,12′R)-6-chloro-7′,7′-bis(hydroxymethyl)-11′,12′-dimethyl-3,4-dihydro-2H,15′H-spiro[naphthalene-1,22′-[20]oxa[13]thia[1,14]diazatetracyclo [14.7.2.0~3,6~.0~19,24~]pentacosa[16,18,24]trien]-15′-one 13′,13′-dioxide]	6.11	8.77		
COCC#C[C@@]1(OC)/C=C/C[C@H](C)[C@@H](C)S(=O)(=O)NC(=O)c2ccc3c(c2)N(C[C@@H]2CC[C@H]21)C[C@@]1(CCCc2cc(Cl)ccc21)CO3 [Example 100343, (1S,3′R,6′R,7′R,8′E,11′S,12′R)-6-chloro-7′-methoxy-7′-(3-methoxy-1-propyn-1-yl)-11′,12′-dimethyl-3,4-dihydro-2H,15′H-spiro[naphthalene-1,22′-[20]oxa[13]thia[1,14]diazatetracyclo [14.7.2.0~3,6~.0~19,24~]pentacosa[8,16,18,24]tetraen]-15′-one 13′,13′-dioxide]	6.21	8.60		
CO[C@@]1(C#CCO)/C=C/C[C@H](C)[C@@H](C)S(=O)(=O)NC(=O)c2ccc3c(c2)N(C[C@@H]2CC[C@H]21)C[C@@]1(CCCc2cc(Cl)ccc21)CO3 [Example 100344, (1S,3′R,6′R,7′S,8′E,11′S,12′R)-6-chloro-7′-(3-hydroxy-1-propyn-1-yl)-7′-methoxy-11′,12′-dimethyl-3,4-dihydro-2H,15′H-spiro[naphthalene-1,22′-[20]oxa[13]thia[1,14]diazatetracyclo [14.7.2.0~3,6~.0~19,24~]pentacosa[8,16,18,24]tetraen]-15′-one 13′,13′-dioxide]	6.54	9.51		
CO[C@@]1(C#CCO)/C=C/C[C@H](C)[C@@H](C)S(=O)(=O)NC(=O)c2ccc3c(c2)N(C[C@@H]2CC[C@H]21)C[C@@]1(CCCc2cc(Cl)ccc21)CO3 [Example 100345, (1S,3′R,6′R,7′S,8′E,11′S,12′R)-6-chloro-7′-(3-hydroxy-1-propyn-1-yl)-7′-methoxy-11′,12′-dimethyl-3,4-dihydro-2H,15′H-spiro[naphthalene-1,22′-[20]oxa[13]thia[1,14]diazatetracyclo [14.7.2.0~3,6~.0~19,24~]pentacosa[8,16,18,24]tetraen]-15′-one 13′,13′-dioxide]		8.62		6.66
C[C@@H]1[C@@H](C)C/C=C/[C@@](O)(CC2=NC(C)(C)CO2)[C@@H]2CC[C@H]2CN2C[C@@]3(CCCc4cc(Cl)ccc43)COc3ccc(cc32)C(=O)NS1(=O)=O [Example 100346, (1S,3′R,6′R,7′S,8′E,11′S,12′R)-6-chloro-7′-((4,4-dimethyl-4,5-dihydro-1,3-oxazol-2-yl)methyl)-7′-hydroxy-11′,12′-dimethyl-3,4-dihydro-2H,15′H-spiro[naphthalene-1,22′-[20]oxa[13]thia[1,14]diazatetracyclo [14.7.2.0~3,6~.0~19,24~]pentacosa[8,16,18,24]tetraen]-15′-one 13′,13′-dioxide]	6.61	9.13		
C[C@@H]1[C@@H](C)C/C=C/[C@](O)(c2cccnn2)[C@@H]2CC[C@H]2CN2C[C@@]3(CCCc4cc(Cl)ccc43)COc3ccc(cc32)C(=O)NS1(=O)=O [Example 100349, (1S,3′R,6′R,7′R,8′E,11′S,12′R)-6-chloro-7′-hydroxy-11′,12′-dimethyl-7′-(3-pyridazinyl)-3,4-dihydro-2H,15′H-spiro[naphthalene-1,22′-[20]oxa[13]thia[1,14]diazatetracyclo [14.7.2.0~3,6~.0~19,24~]pentacosa[8,16,18,24]tetraen]-15′-one 13′,13′-dioxide]	7.24	8.94		
CO[C@]1(CCOS(C)(=O)=O)/C=C/C[C@H](C)[C@@H](C)S(=O)(=O)NC(=O)c2ccc3c(c2)N(C[C@@H]2CC[C@H]21)C[C@@]1(CCCc2cc(Cl)ccc21)CO3 [Example 100351, 2-((1S,3′R,6′R,7′R,8′E,11′S,12′R)-6-chloro-7′-methoxy-11′,12′-dimethyl-13′,13′-dioxido-15′-oxo-3,4-dihydro-2H-spiro[naphthalene-1,22′-[20]oxa[13]thia[1,14]diazatetracyclo [14.7.2.0~3,6~.0~19,24~]pentacosa[8,16,18,24]tetraen]-7′-yl)ethyl methanesulfonate]	5.69	9.94		
COc1ncccc1[C@]1(OC)/C=C/C[C@H](C)[C@@H](C)S(=O)(=O)NC(=O)c2ccc3c(c2)N(C[C@@H]2CC[C@H]21)C[C@@]1(CCCc2cc(Cl)ccc21)CO3 [Example 100352, (1S,3′R,6′R,7′S,8′E,11′S,12′R)-6-chloro-7′-methoxy-7′-(2-methoxy-3-pyridinyl)-11′,12′-dimethyl-3,4-dihydro-2H,15′H-spiro[naphthalene-1,22′-[20]oxa[13]thia[1,14]diazatetracyclo [14.7.2.0~3,6~.0~19,24~]pentacosa[8,16,18,24]tetraen]-15′-one 13′,13′-dioxide]	6.61	8.56		
C[C@@H]1[C@@H](C)CCC[C@@](O)(C#CCN2CCOCC2)[C@@H]2CC[C@H]2CN2C[C@@]3(CCCc4cc(Cl)ccc43)COc3ccc(cc32)C(=O)NS1(=O)=O [Example 100354, (1S,3′R,6′R,7′S,11′S,12′R)-6-chloro-7′-hydroxy-11′,12′-dimethyl-7′-(3-(4-morpholinyl)-1-propyn-1-yl)-3,4-dihydro-2H,15′H-spiro[naphthalene-1,22′-[20]oxa[13]thia[1,14]diazatetracyclo [14.7.2.0~3,6~.0~19,24~]pentacosa[16,18,24]trien]-15′-one 13′,13′-dioxide]	6.83	9.96		
